In brackets after ≈: the same amount, converted by molar mass.
Tests used:
[1] = Inhibition of type1 FAS in HepG2 cells; type: cell-based, Homo sapiens
Staphylococcus aureus = test: Antimicrobial activity against Staphylococcus aureus; type: functional
Moraxella catarrhalis = test: Antimicrobial activity against Moraxella catarrhalis ATCC 25238; type: functional
Haemophilus influenzae = test: Antimicrobial activity against Haemophilus influenzae IID983; type: functional
Bacteroides fragilis = test: Antimicrobial activity against Bacteroides fragilis GAI5560; type: functional

SMILES: C=C/C(C)=C/[C@]1(C)SC(=O)C(C)=C1O
- IC50 [1]: 43.7 µg/mL (≈ 208 µM)
- MIC (Staphylococcus aureus): > 128 µg/mL
- MIC (Moraxella catarrhalis): > 128 µg/mL

SMILES: CCC/C=C/[C@]1(C)SC(=O)C=C1O
- IC50 [1]: 8.8 µg/mL (≈ 44.4 µM)
- MIC (Staphylococcus aureus): > 128 µg/mL
- MIC (Moraxella catarrhalis): > 128 µg/mL
- MIC (Haemophilus influenzae): > 128 µg/mL
- MIC (Bacteroides fragilis): > 128 µg/mL

SMILES: C=C[C@]1(C)SC(=O)C(C)=C1O
- IC50 [1]: > 80 µg/mL
- MIC (Staphylococcus aureus): > 128 µg/mL
- MIC (Moraxella catarrhalis): > 128 µg/mL
- MIC (Haemophilus influenzae): > 128 µg/mL
- MIC (Bacteroides fragilis): > 128 µg/mL

SMILES: C=C[C@]1(C)SC(=O)C=C1O
- IC50 [1]: 70.1 µg/mL (≈ 449 µM)
- MIC (Staphylococcus aureus): > 128 µg/mL
- MIC (Moraxella catarrhalis): > 128 µg/mL
- MIC (Haemophilus influenzae): > 128 µg/mL
- MIC (Bacteroides fragilis): > 128 µg/mL

SMILES: C/C=C/[C@@]1(C)SC(=O)C(C)=C1O
- IC50 [1]: 72.3 µg/mL (≈ 392 µM)
- MIC (Staphylococcus aureus): > 128 µg/mL
- MIC (Moraxella catarrhalis): > 128 µg/mL
- MIC (Haemophilus influenzae): > 128 µg/mL
- MIC (Bacteroides fragilis): > 128 µg/mL

SMILES: C/C=C/[C@@]1(C)SC(=O)C=C1O
- IC50 [1]: 72.1 µg/mL (≈ 424 µM)
- MIC (Staphylococcus aureus): > 128 µg/mL
- MIC (Moraxella catarrhalis): > 128 µg/mL
- MIC (Haemophilus influenzae): > 128 µg/mL
- MIC (Bacteroides fragilis): > 128 µg/mL

SMILES: CC/C=C/[C@@]1(C)SC(=O)C(C)=C1O
- IC50 [1]: 57.5 µg/mL (≈ 290 µM)
- MIC (Staphylococcus aureus): > 128 µg/mL
- MIC (Moraxella catarrhalis): > 128 µg/mL
- MIC (Haemophilus influenzae): > 128 µg/mL
- MIC (Bacteroides fragilis): > 128 µg/mL

SMILES: CC/C=C/[C@]1(C)SC(=O)C(C)=C1O
- IC50 [1]: 47 µg/mL (≈ 237 µM)
- MIC (Staphylococcus aureus): > 128 µg/mL
- MIC (Moraxella catarrhalis): > 128 µg/mL
- MIC (Haemophilus influenzae): > 128 µg/mL
- MIC (Bacteroides fragilis): > 128 µg/mL

SMILES: CC/C=C/[C@]1(C)SC(=O)C=C1O
- IC50 [1]: 18.9 µg/mL (≈ 103 µM)
- MIC (Staphylococcus aureus): > 128 µg/mL
- MIC (Moraxella catarrhalis): > 128 µg/mL
- MIC (Haemophilus influenzae): > 128 µg/mL
- MIC (Bacteroides fragilis): > 128 µg/mL

SMILES: CCC/C=C/[C@]1(C)SC(=O)C(C)=C1O
- IC50 [1]: 20 µg/mL (≈ 94.2 µM)
- MIC (Staphylococcus aureus): > 128 µg/mL
- MIC (Moraxella catarrhalis): > 128 µg/mL
- MIC (Haemophilus influenzae): > 128 µg/mL
- MIC (Bacteroides fragilis): > 128 µg/mL

SMILES: CCC/C=C/[C@@]1(C)SC(=O)C=C1O
- IC50 [1]: 41.6 µg/mL (≈ 210 µM)
- MIC (Staphylococcus aureus): > 128 µg/mL
- MIC (Moraxella catarrhalis): > 128 µg/mL
- MIC (Haemophilus influenzae): > 128 µg/mL
- MIC (Bacteroides fragilis): > 128 µg/mL

SMILES: CCCC/C=C/[C@]1(C)SC(=O)C(C)=C1O
- IC50 [1]: 19.9 µg/mL (≈ 87.9 µM)
- MIC (Staphylococcus aureus): > 128 µg/mL
- MIC (Moraxella catarrhalis): > 128 µg/mL
- MIC (Haemophilus influenzae): > 128 µg/mL
- MIC (Bacteroides fragilis): > 128 µg/mL

SMILES: CCCC/C=C/[C@@]1(C)SC(=O)C=C1O
- IC50 [1]: 18.6 µg/mL (≈ 87.6 µM)
- MIC (Staphylococcus aureus): > 128 µg/mL
- MIC (Moraxella catarrhalis): > 128 µg/mL
- MIC (Haemophilus influenzae): > 128 µg/mL
- MIC (Bacteroides fragilis): > 128 µg/mL

SMILES: CCCCCC/C=C/[C@@]1(C)SC(=O)C(C)=C1O
- IC50 [1]: 57 µg/mL (≈ 224 µM)
- MIC (Staphylococcus aureus): > 128 µg/mL
- MIC (Moraxella catarrhalis): > 128 µg/mL
- MIC (Haemophilus influenzae): > 128 µg/mL
- MIC (Bacteroides fragilis): > 128 µg/mL

SMILES: CCCCCC/C=C/[C@@]1(C)SC(=O)C=C1O
- IC50 [1]: 20.1 µg/mL (≈ 83.6 µM)
- MIC (Staphylococcus aureus): > 128 µg/mL
- MIC (Moraxella catarrhalis): > 128 µg/mL
- MIC (Haemophilus influenzae): > 128 µg/mL
- MIC (Bacteroides fragilis): > 128 µg/mL

SMILES: C=C1C(=O)O[C@@H](CCCCCCCC)[C@@H]1C(=O)O
- IC50 [1]: 7.4 µg/mL (≈ 29.1 µM)

SMILES: C=C/C(C)=C/[C@@]1(C)SC(=O)C=C1O
- IC50 [1]: > 80 µg/mL
- MIC (Staphylococcus aureus): > 128 µg/mL
- MIC (Moraxella catarrhalis): 16 µg/mL (≈ 81.5 µM)
- MIC (Haemophilus influenzae): 32 µg/mL (≈ 163 µM)
- MIC (Bacteroides fragilis): 128 µg/mL (≈ 652 µM)

SMILES: C=C/C(C)=C/[C@]1(C)SC(=O)C=C1O
- IC50 [1]: 19 µg/mL (≈ 96.8 µM)
- MIC (Staphylococcus aureus): > 128 µg/mL
- MIC (Moraxella catarrhalis): > 128 µg/mL

SMILES: C=C[C@@]1(C)SC(=O)C(C)=C1O
- IC50 [1]: > 80 µg/mL
- MIC (Staphylococcus aureus): > 128 µg/mL
- MIC (Moraxella catarrhalis): > 128 µg/mL
- MIC (Haemophilus influenzae): > 128 µg/mL
- MIC (Bacteroides fragilis): > 128 µg/mL

SMILES: CCCC/C=C/[C@@]1(C)SC(=O)C(C)=C1O
- IC50 [1]: 33.7 µg/mL (≈ 149 µM)
- MIC (Staphylococcus aureus): > 128 µg/mL
- MIC (Moraxella catarrhalis): > 128 µg/mL
- MIC (Haemophilus influenzae): > 128 µg/mL
- MIC (Bacteroides fragilis): > 128 µg/mL

SMILES: CCCC/C=C/[C@]1(C)SC(=O)C=C1O
- IC50 [1]: 21 µg/mL (≈ 98.9 µM)
- MIC (Staphylococcus aureus): > 128 µg/mL
- MIC (Moraxella catarrhalis): > 128 µg/mL
- MIC (Haemophilus influenzae): > 128 µg/mL
- MIC (Bacteroides fragilis): > 128 µg/mL

SMILES: CC/C=C/[C@@]1(C)SC(=O)C=C1O
- IC50 [1]: 40.3 µg/mL (≈ 219 µM)
- MIC (Staphylococcus aureus): > 128 µg/mL
- MIC (Moraxella catarrhalis): > 128 µg/mL
- MIC (Haemophilus influenzae): > 128 µg/mL
- MIC (Bacteroides fragilis): > 128 µg/mL

SMILES: C/C=C/[C@]1(C)SC(=O)C(C)=C1O
- IC50 [1]: 37.1 µg/mL (≈ 201 µM)
- MIC (Staphylococcus aureus): > 128 µg/mL
- MIC (Moraxella catarrhalis): > 128 µg/mL
- MIC (Haemophilus influenzae): > 128 µg/mL
- MIC (Bacteroides fragilis): > 128 µg/mL

SMILES: C/C=C/[C@]1(C)SC(=O)C=C1O
- IC50 [1]: > 80 µg/mL
- MIC (Staphylococcus aureus): > 128 µg/mL
- MIC (Moraxella catarrhalis): > 128 µg/mL
- MIC (Haemophilus influenzae): > 128 µg/mL
- MIC (Bacteroides fragilis): > 128 µg/mL

SMILES: C=C[C@@]1(C)SC(=O)C=C1O
- IC50 [1]: > 80 µg/mL
- MIC (Staphylococcus aureus): > 128 µg/mL
- MIC (Moraxella catarrhalis): > 128 µg/mL
- MIC (Haemophilus influenzae): > 128 µg/mL
- MIC (Bacteroides fragilis): > 128 µg/mL

SMILES: CCC/C=C/[C@@]1(C)SC(=O)C(C)=C1O
- IC50 [1]: 41.5 µg/mL (≈ 195 µM)
- MIC (Staphylococcus aureus): > 128 µg/mL
- MIC (Moraxella catarrhalis): > 128 µg/mL
- MIC (Haemophilus influenzae): > 128 µg/mL
- MIC (Bacteroides fragilis): > 128 µg/mL

SMILES: CCCCCC/C=C/[C@]1(C)SC(=O)C(C)=C1O (stereo in doubt; form 1)
- IC50 [1]: 34.8 µg/mL (≈ 137 µM)

SMILES: O=C(O)c1cn(C2CC2)c2cc(N3CCNCC3)c(F)cc2c1=O [CIPROFLOXACIN]
- MIC (Staphylococcus aureus): 0.063 µg/mL (≈ 0.19 µM)
- MIC (Moraxella catarrhalis): 0.031 µg/mL (≈ 0.0936 µM)
- MIC (Haemophilus influenzae): 0.008 µg/mL (≈ 0.0241 µM)
- MIC (Bacteroides fragilis): 4 µg/mL (≈ 12.1 µM)

SMILES: C=C/C(C)=C/[C@@]1(C)SC(=O)C(C)=C1O [THIOLACTOMYCIN]
- IC50 [1]: > 80 µg/mL
- MIC (Staphylococcus aureus): 128 µg/mL (≈ 609 µM)
- MIC (Moraxella catarrhalis): 0.25 µg/mL (≈ 1.19 µM)
- MIC (Haemophilus influenzae): 2 µg/mL (≈ 9.51 µM)
- MIC (Bacteroides fragilis): 1 µg/mL (≈ 4.76 µM)

Reference: ChEMBL document CHEMBL1139992, “Synthesis and biological activity of enantiomeric pairs of 5-vinylthiolactomycin congeners” (Bioorg Med Chem Lett, 2007)
